# Assay results published in paper PMC11395244, “Ginsenoside Rh2 Alleviates LPS-Induced Inflammatory Responses by Binding to TLR4/MD-2 and Blocking TLR4 Dimerization” (International Journal of Molecular Sciences, 2024).
# Biological target: T1, MD-2 (measured as TLR4/MD-2 complex) (Homo sapiens, UniProt Q9Y6Y9)
# T1 construct: gene LY96; recombinant human TLR4/MD-2; His-Flag TLR4/MD-2 protein; with TLR4
# Assay: SPR (Biacore T200, CM5 chip, immobilised TLR4/MD-2 complex)
# Format: binding
# T1 sequence (Q9Y6Y9 19-160): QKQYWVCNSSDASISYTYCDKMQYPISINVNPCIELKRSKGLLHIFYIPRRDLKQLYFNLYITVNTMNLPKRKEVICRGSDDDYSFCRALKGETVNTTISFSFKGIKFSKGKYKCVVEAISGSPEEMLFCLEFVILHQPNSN
# T1 sequence (O00206 24-839 partner): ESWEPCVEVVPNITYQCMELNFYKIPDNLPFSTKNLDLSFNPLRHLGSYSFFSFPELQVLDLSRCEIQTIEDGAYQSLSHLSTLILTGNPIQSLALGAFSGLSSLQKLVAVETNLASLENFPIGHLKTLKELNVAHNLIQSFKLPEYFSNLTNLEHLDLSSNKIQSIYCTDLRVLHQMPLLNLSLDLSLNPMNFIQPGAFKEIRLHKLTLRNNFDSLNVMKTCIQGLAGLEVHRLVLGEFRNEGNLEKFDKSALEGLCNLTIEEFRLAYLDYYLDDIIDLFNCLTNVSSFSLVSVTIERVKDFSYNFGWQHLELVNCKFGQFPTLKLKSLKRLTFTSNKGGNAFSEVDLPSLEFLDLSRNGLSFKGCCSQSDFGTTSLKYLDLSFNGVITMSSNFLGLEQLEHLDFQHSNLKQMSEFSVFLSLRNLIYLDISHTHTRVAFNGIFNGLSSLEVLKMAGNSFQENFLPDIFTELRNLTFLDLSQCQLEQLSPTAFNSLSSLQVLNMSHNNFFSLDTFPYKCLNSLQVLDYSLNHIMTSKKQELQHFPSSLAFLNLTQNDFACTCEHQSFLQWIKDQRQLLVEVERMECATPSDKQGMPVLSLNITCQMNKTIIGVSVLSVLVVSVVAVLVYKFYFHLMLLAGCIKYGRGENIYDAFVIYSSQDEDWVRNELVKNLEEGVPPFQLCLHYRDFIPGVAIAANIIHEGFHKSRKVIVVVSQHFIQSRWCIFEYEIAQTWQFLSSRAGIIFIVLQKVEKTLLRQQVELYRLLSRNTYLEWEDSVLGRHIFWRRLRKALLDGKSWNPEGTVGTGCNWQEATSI
smiles,measurement,value
"CC(C)=CCC[C@](C)(O)[C@H]1CC[C@]2(C)[C@@H]1[C@H](O)C[C@@H]1[C@@]3(C)CC[C@H](O[C@@H]4O[C@H](CO)[C@@H](O)[C@H](O)[C@H]4O)C(C)(C)[C@@H]3CC[C@]12C [G-Rh2, Ginsenoside Rh2]",Kd,71.2 µM
